This passage reports melting point results from a melting point compilation (Tetko et al.; mined from patent text by program, amines drawn as free bases though some values may be those of a salt).

The structures appear in SMILES notation. Residues, ends and D or L forms follow the SMILES beside them. *: point of attachment. Boc = CC(C)(C)OC(=O)* Some results are limits rather than exact numbers.

Compound `COc1cc(-c2nc(N)sc2CSC2CCCCC2)c(OC)cc1C` returned a melting point of 143 to 144 °C.
On to `O=C(O)c1ccc2oc(COCc3ccccc3)cc2c1`, for which the melting point fell in the range of 129 to 132 °C.
In the case of `COc1ccc(C=CC(=O)N2CCOCC2)cc1C(F)F`, the melting point was 119 °C.
`COc1cccc(C2(Cl)C(C)(C)C2(C)C)c1OC` showed a melting point of 123 to 125 °C.
The value for `c1cnc2[nH]c(-c3ccc(C4OCCCO4)cc3)cc2n1` was 288 to 289 °C; that for `CC(C)c1ccc(N(Cc2ccc(N(C)C)cc2)C(=O)C2CC(=O)Nc3ccccc32)cc1` (stereo not given) was 170 °C; that for `CC=C1CCC2C3CCC4CC(O)CCC4(C)C3C(N(C)C)CC12C` (stereo not given) was 59 to 61 °C.
Then `NS(=O)(=O)c1ccc(NC(=O)CCl)cc1C(F)(F)F`, with 185 to 190 °C.
In turn, `Cc1nc(CN2CCc3sc(Nc4ncc(F)cn4)nc3-c3c[nH]nc32)no1` came in with a melting point of 245 °C.
For `CC(c1ccnnc1)C(O)(Cn1cncn1)c1ccc(Cl)cc1Cl` (stereo not given), the melting point is 174 to 177 °C.
The value for `Cc1nc(=O)[nH]c2cc3c(cc12)OCO3` was 310 to 312 °C.
The value for `Oc1cc(Cl)c(N2CCOCC2)cc1Oc1ccc(Cl)cc1Cl` was 187 to 188 °C; that for `CS(=O)(=O)NC1Cc2ccc(C(=O)CCCCCl)cc2C1` (stereo not given) was 71 to 72 °C.
In turn, `COc1ccc(C)cc1NC(=O)Nc1ccc(C2=CCN(C(=O)Nc3ccc(OCC(O)CO)cc3C(F)(F)F)CC2)cc1` (stereo not given) gave a melting point of 135 to 137 °C.
The value for `Cc1cn(C[C@H]2CC[C@@H](CO)O2)c(=O)[nH]c1=O` was 133 to 135 °C.
In turn, `COC(=O)CNC(=O)CNC(=O)CNC(=O)OC(C)(C)C` (Boc-Gly-Gly-Gly-OMe) registered a melting point of 122 to 128 °C.
The value for `N#Cc1c(N2CCN(C(=O)c3cccs3)CC2)c2cscc2n(-c2cccnc2)c1=O` was 282 °C.
Compound `C[Si](C)(C)O[C@@H]1C(=O)N[C@@H]1c1ccccc1` (relative stereo) registered a melting point of 118 to 120 °C.
The value for `CC(=O)N(C)Nc1ccnc2c(NC(=O)c3c(Cl)cccc3Cl)cccc12` was 215 °C; that for `Cc1cc(-c2cnn3c(C(F)(F)F)cc(-c4ccc(C(F)(F)F)c(F)c4)nc23)ccn1` was 250 °C; that for `CC(=O)OCC1OC(n2c(Cl)nc3ccc(Cl)cc32)C(OC(C)=O)C1OC(C)=O` (stereo not given) was 155 to 157 °C.
Consider `Cn1nc(C=NO)nc1NCCCOc1cccc(CN2CCCCC2)c1`, for which the melting point was 173 to 174 °C.
Then `Cc1nc(N)nc(N)c1N1CCN(c2ccc(C#N)cc2)CC1`, with > 300 °C.
Turning to `Nc1cc(-c2ccc(CO)o2)nn1Cc1ccccc1`, the melting point stood at 163 °C.
In the case of `COc1ccccc1-n1c(=O)[nH]c2cccnc21`, the melting point is 130 °C.
For the compound `C#CCOc1ccc(OCC2OC2(C)C)cc1` (stereo not given), the melting point was in the range of 72 to 73 °C.
For the compound `Cc1nc2ccc(N3C[C@H](C(N)c4nccs4)OC3=O)cc2s1` (stereo not given in full), the melting point stood at 207 °C.
The value for `CC(=O)Nc1ccccc1C(C)=O` was 99 to 100 °C.
Then `CCc1nccn1-c1nc(-c2ccc(Cl)cc2)c(CCC(=O)O)o1`, with 197 to 199 °C; and `CCCCc1nc2ccccc2c(=O)n1Cc1ccc(-c2ccccc2-c2nnn[nH]2)cc1`, with 180 to 182 °C; and `Cn1c(=O)c(-c2ccc(Cl)cc2Cl)cc2c3cc(-c4nc(NC(=O)C5CC5)no4)ccc3n(C)c21`, with 292 to 295 °C.
Then `CCNc1ccc(-n2c(C(F)(F)F)nn(C)c2=S)c(Cl)c1`, with 87 to 90 °C; and `O=C(Nc1ccc(C(F)(F)F)cc1)Nc1cccc(C(=O)N2CCOCC2)n1`, with 208 to 210 °C.
`COCC1CN(c2ccc(C3=CCCCC3)cc2)C(=O)O1` (racemic) had a melting point of 106 to 108 °C.
Then `CC(N)C(C)n1ncn(-c2ccc(N3CCN(c4ccc(O)cc4)CC3)cc2)c1=O` (stereo not given), with 237 °C; and `CCOC(=O)c1c(C(F)(F)F)nc(C)c(-c2ccccc2)c1O`, with 82 to 84 °C.
Compound `CC(C)[C@H](NC(=O)N(C)Cc1csc(C2CCCC2)n1)C(=O)N[C@@H](Cc1ccccc1)C[C@H](O)[C@H](Cc1ccccc1)NC(=O)OCc1cncs1` displayed a melting point of 70 to 71 °C.
The value for `COc1ccc(CNc2nnc(Cl)c3cc([N+](=O)[O-])ccc23)cc1Cl` was 179 to 180 °C.
Compound `COc1cc2c(cc1Nc1ncc(Cl)c(Nc3ccccc3S(=O)(=O)N(C)C)n1)CCN(CCO)CC2` displayed a melting point of 150 to 152 °C.
For the compound `CCOCc1nc2c(N)nc3cc(N4CCCC4=O)ccc3c2n1CCCOC(C)C`, the melting point was in the range of 165 to 167 °C.
For the compound `O=c1[nH]cc(-c2cccc(Cl)c2)c2ncccc12`, the melting point amounted to 252 °C.
Then `CCc1nc2cc(Cn3ccnc3)ccc2n1C`, with 127 °C; and `O=C(c1cc(Cl)cc(Cl)c1)c1cc(Cl)cc(Cl)c1`, with 157 °C.
Then `CC(C)(C)OC(=O)n1nnc(-c2ccccc2)c1I`, with 87 to 90 °C.
Then `CC(C)OC(=O)n1cc(F)c(N)nc1=O`, with 217 to 219 °C; and `CCCCc1nc2c(N)nc3ccccc3c2n1CCCNS(=O)(=O)c1ccc(C)cc1`, with 197 to 198 °C; and `O=c1cc[nH]c2c([N+](=O)[O-])cc(C(F)(F)F)cc12`, with 153 to 156 °C.
In turn, `COc1ccc(-n2nc(C(F)(F)F)nc2-c2ccc(S(C)(=O)=O)cc2)cc1` registered a melting point of 156 °C.
Then `N#CC(Cl)Cc1ccc([N+](=O)[O-])cc1` (stereo not given), with 112 °C; and `O=C(Nc1ccccc1)Nc1[nH]c2ccccc2c1-c1ccccc1`, with 210 to 212 °C; and `CCc1nc2c(N)nc3cc(-c4cnc5ccccc5c4)cnc3c2n1CC(C)(C)O`, with > 270 °C.
`O=C(O)c1cccc([N+](=O)[O-])c1NCc1ccccc1Cl` displayed a melting point of 164 °C.
`O=[N+]([O-])c1cc(Cl)ccc1CBr` gave a melting point of 42 to 43 °C.
Regarding `CCOC(=O)c1cc(C(=O)c2ccccc2Cl)c(-n2c(C)nnc2CNC(=O)c2cc3ccccc3[nH]2)s1`, the melting point lay within 135 to 140 °C.
As to `CC1(C)COC(=O)C1=O`, the melting point was 61 to 64 °C.
Then `CN(CCCO)c1ccnc(CSc2nc3ccccc3[nH]2)c1Cl`, with 127 to 130 °C.
Then `CC(C)(C)c1cc(N2C(=O)c3ccccc3C2=O)cc(C(C)(C)C)c1O`, with 196 to 201 °C; and `CCOC(=O)CN(C(=O)CN1C(=O)c2ccccc2C1=O)c1ccc(Cl)c(COc2cccc3ccc(C)nc23)c1Cl`, with 211 to 213 °C; and `COc1ccc(-c2cc(=O)n(Cc3c(Cl)cc(Cl)cc3Cl)nc2-c2ccc(OC)cc2)cc1`, with 142 to 143 °C.
Then `O=C(C=C1OC(=O)c2ccccc21)c1ccc(Cl)cc1`, with 158 to 159 °C.
The compound `O=C1CN(Cc2ccc(COc3cccc4c3CN(C3CCC(=O)NC3=O)C4=O)cc2)CCN1` (stereo not given) displayed a melting point of 245 to 247 °C.
Then `O=C1[C@H]2CCCC[C@H]2C(=O)N1Cc1ccncc1`, with 91 to 92 °C; and `Cc1[nH]c(-c2ccccc2)nc1C=O`, with 102 to 115 °C.
The value for `Cn1cc(OS(C)(=O)=O)c(=O)c2ccccc21` was 208 to 209 °C; that for `O=C1CCCCCC1C(C[N+](=O)[O-])c1ccc(OCc2ccccc2)cc1` (racemic) was 120 to 121 °C; that for `COc1ccc(C=NO)c(Cl)c1O` was 174 to 176 °C.
For `Nc1ccc(N2CCN(Cc3ccccc3)CC2)cc1C(=O)O`, the melting point stood at 242 °C.
The compound `CON=C1CCC1N1CCC(Cc2ccc(Cl)cc2)CC1` (stereo not given) displayed a melting point of 127 to 128 °C.
Then `CCOC(=O)c1c(-c2ccccc2)c(-c2ccc(F)cc2)c(C=O)n1C(C)C`, with 88 to 90 °C; and `CS(=O)(=O)c1cnc2c(c1)CCC(c1ccc(Cl)c(Cl)c1)O2` (stereo not given), with 172 °C; and `COc1c(OCc2ccccc2)cnc(CNc2nc(C)nc(C)c2Cl)c1C`, with 114 to 116 °C.
The value for `CCOC(=O)/C=C/c1ccc(OCCOC)cc1Oc1ncc(Cl)cc1Cl` was 70.7 to 71.3 °C; that for `CCCC(=O)Nc1cnc2cc(F)ccc2c1O` was 306 to 308 °C.
Then `CCOc1cccc(C)c1S(=O)(=O)NC(=O)c1noc(C)n1`, with 168 °C.
In turn, `Fc1cc(F)c2oc(CCC#Cc3ccccn3)nc2c1` displayed a melting point of 93.5 to 94 °C.
Take `CC1CCC(=NNc2ccccc2)c2ncc(Br)c(=O)n21` (stereo not given): the melting point lay within 190 to 192 °C.
Then `C#CCON=Cc1cc(Cl)ccc1O`, with 71 to 73 °C.
For `CC(C)(C=O)C(O)(COc1cccc2ccccc12)Cn1ccnc1` (stereo not given), the melting point amounted to 147 °C.
Consider `CN(C)CCCNC(=O)c1ccc(-c2nnc(CSCCOc3ccc(Cl)cc3Cl)o2)cc1`, for which the melting point lay within 140 to 141 °C.
Then `O=C(c1cccnc1)N1CC2CSc3ccccc3C2=N1` (stereo not given), with 173 to 175 °C.
Turning to `COc1ncc(C)nc1NS(=O)(=O)c1cccc(Cl)c1Cl`, the melting point was 50 to 60 °C.
As to `Cc1ccc(Sc2cncc3sc(C(N)=O)cc23)cc1`, the melting point lay in the range of 198 to 199 °C.
Then `O=C1CCN(Cc2ccc3c(c2)OCO3)CC1C(c1ccccc1)c1ccccc1` (stereo not given), with 113 to 114 °C; and `CSc1nc(=O)cc(N)n1-c1ccc(Br)cc1`, with 138 to 140 °C; and `COCCCc1cc(N(C)Cc2sc(-c3ccc(C(F)(F)F)cc3)nc2C)ccc1OCC(=O)O`, with 142 to 143 °C.
The value for `CC1(C)CCC2=C(O1)c1ccccc1C(=O)C2=O` was 154 to 156 °C; that for `COc1ccccc1-n1c(=O)[nH]c2c(C(N)=O)nc(-c3ccc(O)cc3)nc21` was 362 to 363 °C; that for `O=C(Nc1cccc(Oc2ccc(Cl)cc2)c1)c1ccn2c1CSC2c1cccnc1` (stereo not given) was 140 °C.
In turn, `CC(C)C1CC(=O)C(C(=O)NS(=O)(=O)c2ccccc2)C(=O)C1` (stereo not given) came in with a melting point of 112 to 114 °C.
Then `O=C1C(Cc2ccccc2)CCCCCC1Cc1ccccc1` (stereo not given), with 66 to 68 °C.

A word on the melting point: it is the temperature of the solid-liquid transition.
